Source: patent US9777001B2 (priority 2014, dated 2017)
Where a name gives a salt, the structure may show the parent alone.

Assays:
human Factor XIa = human Factor XIa (Homo sapiens, UniProt P03951); test: biochemical; details: purified human Factor XIa, substrate S-2366, HEPES buffer pH 7.4
human plasma kallikrein = human plasma kallikrein (Homo sapiens, UniProt P03952); test: biochemical; details: purified human plasma kallikrein, substrate S-2302, sodium phosphate buffer pH 7.5
human plasma kallikrein, sequence (P03952 391-638 limits assumed): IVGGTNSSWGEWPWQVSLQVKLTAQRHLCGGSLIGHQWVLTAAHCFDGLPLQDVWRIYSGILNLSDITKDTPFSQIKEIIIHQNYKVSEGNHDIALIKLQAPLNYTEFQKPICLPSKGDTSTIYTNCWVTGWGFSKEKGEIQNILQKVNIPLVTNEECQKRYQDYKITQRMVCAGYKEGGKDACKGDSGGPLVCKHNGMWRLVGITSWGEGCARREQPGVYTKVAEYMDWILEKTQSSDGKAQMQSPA
human plasma kallikrein, sequence (P03952 20-390 partner limits assumed): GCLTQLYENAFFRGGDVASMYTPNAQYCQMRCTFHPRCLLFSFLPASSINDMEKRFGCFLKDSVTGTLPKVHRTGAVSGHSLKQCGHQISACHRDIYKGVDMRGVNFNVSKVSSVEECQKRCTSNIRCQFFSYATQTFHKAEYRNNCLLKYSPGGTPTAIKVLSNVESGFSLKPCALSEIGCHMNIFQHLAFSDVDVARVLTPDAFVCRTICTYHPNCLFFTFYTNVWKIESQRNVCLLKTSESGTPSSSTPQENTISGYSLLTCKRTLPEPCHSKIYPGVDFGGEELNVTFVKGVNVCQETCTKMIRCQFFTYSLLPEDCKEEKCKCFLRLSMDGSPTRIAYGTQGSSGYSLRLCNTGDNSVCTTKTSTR

human Factor XIa, sequence (P03951 388-625 limits assumed): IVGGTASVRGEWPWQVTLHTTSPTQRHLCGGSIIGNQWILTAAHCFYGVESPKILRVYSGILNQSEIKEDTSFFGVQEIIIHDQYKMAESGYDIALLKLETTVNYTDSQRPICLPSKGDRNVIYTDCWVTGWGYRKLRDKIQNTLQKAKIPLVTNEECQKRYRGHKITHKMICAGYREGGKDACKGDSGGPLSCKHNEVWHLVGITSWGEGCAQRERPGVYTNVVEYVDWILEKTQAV
human Factor XIa, sequence (P03951 19-387 partner limits assumed): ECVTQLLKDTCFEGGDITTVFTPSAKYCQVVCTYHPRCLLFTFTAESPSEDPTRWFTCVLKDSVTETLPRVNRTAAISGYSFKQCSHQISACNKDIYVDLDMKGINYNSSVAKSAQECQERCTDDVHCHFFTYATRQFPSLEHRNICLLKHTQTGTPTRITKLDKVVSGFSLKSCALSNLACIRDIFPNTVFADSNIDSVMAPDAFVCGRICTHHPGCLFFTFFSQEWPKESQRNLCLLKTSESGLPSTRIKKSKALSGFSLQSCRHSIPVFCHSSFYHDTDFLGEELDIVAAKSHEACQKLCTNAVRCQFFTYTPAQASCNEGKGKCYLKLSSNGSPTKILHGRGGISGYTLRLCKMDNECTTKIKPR

Compound: C[C@@H]1CCC[C@H](n2cnc(-c3c(-n4cnnn4)ccc(Cl)c3F)cc2=O)c2cc(ccn2)-c2cc(F)ccc2NC1=O [Example 35, (10R,14S)-14-{4-[3-chloro-2-fluoro-6-(1H-1,2,3,4-tetrazol-1-yl)phenyl]-6-oxo-1,6-dihydropyrimidin-1-yl}-4-fluoro-10-methyl-8,16-diazatricyclo[13.3.1.0^2,7]nonadeca-1(19),2(7),3,5,15,17-hexaen-9-one trifluoroacetate]
- Ki (human Factor XIa): 0.1 nM

Compound: C[C@@H]1CCC[C@H](n2cnc(-c3cc(Cl)ccc3-n3cc(C(F)(F)F)nn3)cc2=O)c2cc(ccn2)-c2ccc(C#N)cc2NC1=O [Example 43, (10R,14S)-14-(4-{5-chloro-2-[4-(trifluoromethyl)-1H-1,2,3-triazol-1-yl]phenyl}-6-oxo-1,6-dihydropyrimidin-1-yl)-10-methyl-9-oxo-8,16-diazatricyclo [13.3.1.0^2,7]nonadeca-1(19),2(7),3,5,15,17-hexaene-5-carbonitrile trifluoroacetate]
- Ki (human Factor XIa): 3 nM

Compound: C[C@@H]1CCC[C@H](n2cnc(-c3cc(Cl)ccc3F)cc2=O)c2cc(ccn2)-c2cc(F)ccc2NC1=O [Example 50, (10R,14S)-14-[4-(5-chloro-2-fluorophenyl)-6-oxo-1,6-dihydropyrimidin-1-yl]-4-fluoro-10-methyl-8,16-diazatricyclo[13.3.1.0^2,7]nonadeca-1(19),2(7),3,5,15,17-hexaen-9-one trifluoroacetate]
- Ki (human Factor XIa): 290 nM

Compound: C[C@@H]1CCC[C@H](n2cnc(-c3cc(Cl)ccc3-n3cc(Cl)nn3)cc2=O)c2cc(ccn2)-c2ccccc2NC1=O [Example 57, (10R,14S)-14-{4-[5-chloro-2-(4-chloro-1H-1,2,3-triazol-1-yl)phenyl]-6-oxo-1,6-dihydropyrimidin-1-yl}-10-methyl-8,16-diazatricyclo[13.3.1.0^2,7]nonadeca-1(19),2,4,6,15,17-hexaen-9-one]
- Ki (human Factor XIa): 0.28 nM

Compound: C[C@@H]1CCC[C@H](n2cnc(-c3cc(Cl)ccc3-n3cc(Cl)nn3)cc2=O)c2cc(ccn2)-c2cc(S(C)(=O)=O)ccc2NC1=O [Example 67, (10R,14S)-14-{4-[5-chloro-2-(4-chloro-1H-1,2,3-triazol-1-yl)phenyl]-6-oxo-1,6-dihydropyrimidin-1-yl}-4-methanesulfonyl-10-methyl-8,16-diazatricyclo [13.3.1.0^2,7]nonadeca-1(19),2(7),3,5,15,17-hexaen-9-one]
- Ki (human Factor XIa): 11 nM

Compound: C[C@@H]1CCC[C@H](n2cnc(-c3cc(Cl)ccc3-n3cc(Cl)nn3)cc2=O)c2cc(ccn2)-c2c(Cl)cccc2NC1=O [Example 104, (10R,14S)-3-chloro-14-{4-[5-chloro-2-(4-chloro-1H-1,2,3-triazol-1-yl)phenyl]-6-oxo-1,6-dihydropyrimidin-1-yl}-10-methyl-8,16-diazatricyclo [13.3.1.0^2,7]nonadeca-1(19),2(7),3,5,15,17-hexaen-9-one]
- Ki (human plasma kallikrein): 190 nM

Compound: C[C@@H]1CCC[C@H](n2cnc(-c3cc(Cl)ccc3-n3cc(C(F)(F)F)nn3)cc2=O)c2ccnc(c2)-c2ccc(C#N)cc2NC1=O [Example 113, (10R,14S)-14-(4-{5-chloro-2-[4-(trifluoromethyl)-1H-1,2,3-triazol-1-yl]phenyl}-6-oxo-1,6-dihydropyrimidin-1-yl)-10-methyl-9-oxo-8,18-diazatricyclo [13.3.1.0^2,7]nonadeca-1(19),2(7),3,5,15,17-hexaene-5-carbonitrile]
- Ki (human plasma kallikrein): 15 nM

Compound: C[C@@H]1CCC[C@H](n2cnc(-c3cc(Cl)ccc3-n3cc(Cl)nn3)cc2=O)c2cc(ccn2)-c2cc(C#N)ccc2NC1=O [Example 114, (10R,14S)-14-{4-[5-chloro-2-(4-chloro-1H-1,2,3-triazol-1-yl)phenyl]-6-oxo-1,6-dihydropyrimidin-1-yl}-10-methyl-9-oxo-8,16-diazatricyclo[13.3.1.0^2,7]nonadeca-1(19),2(7),3,5,15,17-hexaene-4-carbonitrile trifluoroacetate]
- Ki (human plasma kallikrein): 26 nM

Compound: COC(=O)Nc1ccc2c(c1)NC(=O)[C@H](C)CCC[C@H](n1cnc(-c3cc(Cl)cc4cnn(C)c34)cc1=O)c1cc-2ccn1 [Example 120, N-[(10R,14S)-14-[4-(5-chloro-1-methyl-1H-indazol-7-yl)-6-oxo-1,6-1-yl]-10-methyl-9-oxo-8,16-diazatricyclo[13.3.1.0^2,7]nonadeca-1(19),2(7),3,5,15,17-hexaen-5-yl]carbamate]
- Ki (human plasma kallikrein): 180 nM

Compound: C[C@@H]1CCC[C@H](n2cnc(-c3cc(Cl)ccc3-c3cnn(C(F)F)c3)cc2=O)c2cc(ccn2)-c2cc(F)ccc2NC1=O [Example 124, (10R,14S)-14-(4-{5-chloro-2-[1-(difluoromethyl)-1H-pyrazol-4-yl]phenyl}-6-oxo-1,6-dihydropyrimidin-1-yl)-4-fluoro-10-methyl-8,16-diazatricyclo [13.3.1.0^2,7]nonadeca-1(19),2(7),3,5,15,17-hexaen-9-one trifluoroacetate]
- Ki (human plasma kallikrein): 780 nM

Compound: COC(=O)Nc1ccc2c(c1)CCCCCC[C@H](n1cnc(-c3cc(Cl)ccc3-n3cc(Cl)nn3)cc1=O)c1nc-2c[nH]1 [Example 131, methyl N-[(14S)-14-{4-[5-chloro-2-(4-chloro-1H-1,2,3-triazol-1-)phenyl]-6-oxo-1,6-dihydropyrimidin-1-yl}-16,18-diazatricyclo[13.2.1.0^2,7]octadeca-1(17),2,4,6,15 (18)-pentaen-5-yl]carb amate trifluoroacetate]
- Ki (human plasma kallikrein): 2200 nM

Compound: COC(=O)Nc1ccc2c(c1)CCCCCC[C@H](n1cnc(-c3cc(Cl)ccc3-n3cnnn3)cc1=O)c1nc-2c[nH]1 [Example 132, methyl N-[(14S)-14-{4-[5-chloro-2-(1H-1,2,3,4-tetrazol-1-yl)phenyl]-6-oxo-1,6-dihydropyrimidin-1-yl}-16,18-diazatricyclo[13.2.1.0^2,7]octadeca-1(17),2,4,6,15(18)-pentaen-5-yl]carbamate trifluoroacetate]
- Ki (human plasma kallikrein): 340 nM

Compound: C[C@@H]1CCC[C@H](n2cnc(-c3cc(Cl)ccc3-n3cc(C(F)(F)F)nn3)cc2=O)c2cc(ccn2)-c2cc(F)ccc2NC1=O [Example 135, (10R,14S)-14-(4-{5-chloro-2-[4-(trifluoromethyl)-1H-1,2,3-triazol-1-yl]phenyl}-6-oxo-1,6-dihydropyrimidin-1-yl)-4-fluoro-10-methyl-8,16-diazatricyclo [13.3.1.0^2,7]nonadeca-1(19),2(7),3,5,15,17-hexaen-9-one trifluoroacetate]
- Ki (human plasma kallikrein): 29 nM

Compound: CCOc1cn(-c2ccc(Cl)c(F)c2-c2cc(=O)n([C@H]3CCC[C@@H](C)C(=O)Nc4ccc(F)cc4-c4ccnc3c4)cn2)nn1 [Example 136, (10R,14S)-14-{4-[3-chloro-6-(4-ethoxy-1H-1,2,3-triazol-1-yl)-2-fluorophenyl]-6-oxo-1,6-dihydropyrimidin-1-yl}-4-fluoro-10-methyl-8,16-diazatricyclo [13.3.1.0^2,7]nonadeca-1(19),2(7),3,5,15,17-hexaen-9-one trifluoroacetate]
- Ki (human plasma kallikrein): 76 nM

Compound: Cc1cn(-c2ccc(Cl)c(F)c2-c2cc(=O)n([C@H]3CCC[C@@H](C)C(=O)Nc4ccc(F)cc4-c4ccnc3c4)cn2)nn1 [Example 137, (10R,14S)-14-{4-[3-chloro-2-fluoro-6-(4-methyl-1H-1,2,3-triazol-1-yl)phenyl]-6-oxo-1,6-dihydropyrimidin-1-yl}-4-fluoro-10-methyl-8,16-diazatricyclo[13.3.1.0^2,7]nonadeca-1(19),2(7),3,5,15,17-hexaen-9-one]
- Ki (human plasma kallikrein): 12 nM

Compound: C[C@@H]1CCC[C@H](n2cnc(-c3cc(Cl)ccc3-n3cc(O)nn3)cc2=O)c2cc(ccn2)-c2cc(F)ccc2NC1=O [Example 139, (10R,14S)-14-{4-[5-chloro-2-(4-hydroxy-1H-1,2,3-triazol-1-yl)phenyl]-6-oxo-1,6-dihydropyrimidin-1-yl}-4-fluoro-10-methyl-8,16-diazatricyclo[13.3.1.0^2,7]nonadeca-1(19),2(7),3,5,15,17-hexaen-9-one trifluoroacetate]
- Ki (human plasma kallikrein): 510 nM

Compound: C[C@@H]1CCC[C@H](n2cnc(-c3cc(Cl)ccc3C(F)(F)F)cc2=O)c2cc(ccn2)-c2cc(F)ccc2NC1=O [Example 141, (10R,14S)-14-{4-[5-chloro-2-(trifluoromethyl)phenyl]-6-oxo-1,6dihydropyrimidin-1-yl}-4-fluoro-10-methyl-8,16-diazatricyclo[13.3.1.0^2,7]nonadeca-1(19),2(7),3,5,15,17-hexaen-9-one trifluoroacetate]
- Ki (human plasma kallikrein): 580 nM

Compound: CCOc1cn(-c2ccc(Cl)cc2-c2cc(=O)n([C@H]3CCC[C@@H](C)C(=O)Nc4ccc(F)cc4-c4ccnc3c4)cn2)nn1 [Example 144, (10R,14S)-14-{4-[5-chloro-2-(4-ethoxy-1H-1,2,3-triazol-1-yl)phenyl]-6-oxo-1,6-dihydropyrimidin-1-yl}-4-fluoro-10-methyl-8,16-diazatricyclo[13.3.1.0^2,7]nonadeca-1(19),2(7),3,5,15,17-hexaen-9-one trifluoroacetate]
- Ki (human plasma kallikrein): 210 nM

Compound: C[C@@H]1CCC[C@H](n2cnc(-c3cc(Cl)ccc3OC(F)(F)F)cc2=O)c2cc(ccn2)-c2cc(F)ccc2NC1=O [Example 146, (10R,14S)-14-{4-[5-chloro-2-(trifluoromethoxy)phenyl]-6-oxo-1,6-dihydropyrimidin-1-yl}-4-fluoro-10-methyl-8,16-diazatricyclo[13.3.1.0^2,7]nonadeca-1(19),2(7),3,5,15,17-hexaen-9-one trifluoroacetate]
- Ki (human plasma kallikrein): 3800 nM

Compound: C[C@@H]1CCC[C@H](n2cnc(-c3c(Cl)ccc(Cl)c3F)cc2=O)c2cc(ccn2)-c2cc(F)ccc2NC1=O [Example 147, (10R,14S)-14-[4-(3,6-dichloro-2-fluorophenyl)-6-oxo-1,6-dihydropyrimidin-1-yl]-4-fluoro-10-methyl-8,16-diazatricyclo[13.3.1.0^2,7]nonadeca-1(19),2(7),3,5,15,17-hexaen-9-one trifluoroacetate]
- Ki (human plasma kallikrein): 210 nM

Compound: C[C@@H]1CCC[C@H](n2cnc(-c3cc(Cl)ccc3-n3cc(C(N)=NO)nn3)cc2=O)c2cc(ccn2)-c2cc(F)ccc2NC1=O [Example 149, 1-(4-chloro-2-{1-[(10R,14S)-4-fluoro-10-methyl-9-oxo-8,16-diazatricyclo [13.3.1.0^2,7]nonadeca-1(19),2(7),3,5,15,17-hexaen-14-yl]-6-oxo-1,6-dihydropyrimidin-4-yl}phenyl)-N-hydroxy-1H-1,2,3-triazole-4-carboximidamide bis-trifluoroacetate]
- Ki (human plasma kallikrein): 38 nM
